Target: human DGAT2 (hDGAT2) (Homo sapiens (Human), UniProt Q96PD7)
Experiment: DGAT2 enzymatic activity assay (triolein formation, LC/MS/MS)
Format: biochemical
Conditions: Sf-9 membrane prep expressing hDGAT2; 25 μM diolein, 10 μM oleoyl-CoA; triolein by LC/MS/MS
Protocol: Sf-9 insect cells were maintained in Grace's insect cell culture medium with 10% heated-inactivated fetal bovine serum, 1% Pluronic F-68 and 0.14 μg/ml Kanamycine sulfate in Erlenmeyer flasks at 28° C. in a shaker incubator. After infection with untagged baculovirus expressing human DGAT2 (hDGAT2) at multiplicity of infection (MOI) 0.1 for 48 hours, cells were harvested. Cell pellets were suspended in buffer containing 10 mM Tris-HCl (pH 7.5), 1 mM EDTA (pH 8.0), 250 mM sucrose and Complete Protease Inhibitor Cocktail (Roche Diagnostics Corp., Indianapolis, Ill.), and sonicated on ice. Membrane fractions were isolated by ultracentrifugation (100,000×g pellet), resuspended in the same buffer, and frozen (−80° C.) for later use. The protein concentration was determined with the BCA Protein Assay kit (Pierce Biotechnology Inc., Rockford, Ill.). Expression of protein levels was analyzed by immunoblotting with goat polyclonal DGAT2 antibody C-15 and donkey anti-goat IgG HRP (Santa Cruz Biotechnology, Inc., Santa Cruz, Calif.) followed by detection with ECL reagent (GE Healthcare, Piscataway, N.J.).
LC/MS/MS analyses were performed using Thermal Fisher's LX4-TSQ Vantage system. This system consists of an Agilent binary high-performance liquid chromatography (HPLC) pumps and a TSQ Vantage triple quadrupole MS/MS instrument. For each sample, 2 μL samples from the top organic layer of in-plate liquid-liquid extraction were injected onto a Thermo Betabasic C4 column (2.1 mm×20 mm, 5 μm particle size). The samples were then eluted using the following conditions; mobile phase: methanol/water with 0.1% ammonium format=92/8 (v/v), flow rate: 1 mL/min, temperature: 25 C. Data was acquired in positive mode using a heated electrospray ionization (HESI) interface. The operational parameters for the TSQ Vantage MS/MS instrument were a spray voltage of 3000 V, capillary temperature of 280° C., vaporizer temperature 400° C., shealth gas 60 arbitrary unit, Aux gas 40 arbitrary units, S-lens 113 and collision gas 0.16 Pascals. […] (SRM) chromatograms of triolein (Q1:902.9>Q3:602.3) and internal standard (Q1:902.9>Q3:602.3) were collected for 40 sec. The peak area was integrated by Xcalibur Quan software. The ratio between the triolein generated in the reaction and spiked in internal standard was used to generate percentage inhibition and IC50 values. Compound percentage inhibition was calculated by the following formula: Inhibition %/=1−[(compound response−low control)/(high control−low control)]×100%. Potent compounds were titrated and IC50 were calculated by 4 parameter sigmoidal curve fitting formula.
DGAT2 activity was determined by measuring the amount of enzymatic product triolein (1,2,3-Tri(cis-9-octadecenoyl)glycerol) using the membrane prep mentioned above. The assay was carried out in deep well 384 plates in a final volume of 40 μL at rt. The assay mixture contained the following: assay buffer (100 mM Tris.Cl, pH 7.0, 20 mM MgCl2, 5% ethanol), 25 μM of diolein, 10 μM of oleoyl-CoA and 10 ng/μL of DGAT2 membrane.

Chain of human DGAT2 (hDGAT2) (Q96PD7 whole entry): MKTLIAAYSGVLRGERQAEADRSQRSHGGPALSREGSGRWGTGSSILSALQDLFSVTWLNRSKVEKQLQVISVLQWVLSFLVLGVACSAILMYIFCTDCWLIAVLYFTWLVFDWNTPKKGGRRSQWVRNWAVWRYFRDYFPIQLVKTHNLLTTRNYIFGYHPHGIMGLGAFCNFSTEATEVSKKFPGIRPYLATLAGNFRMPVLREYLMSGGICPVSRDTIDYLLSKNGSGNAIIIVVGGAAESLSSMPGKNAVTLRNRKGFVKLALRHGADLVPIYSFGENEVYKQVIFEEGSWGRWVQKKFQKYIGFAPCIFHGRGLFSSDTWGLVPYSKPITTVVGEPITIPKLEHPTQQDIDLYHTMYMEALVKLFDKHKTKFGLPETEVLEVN

SMILES	IC50 [nM]
O=C(NC1CCS(=O)(=O)C1)c1ccc2c(-c3ccccc3)cn(-c3ccc(F)cc3)c2c1 (racemic) [Example 43, N-(1,1-dioxidotetrahydrothiophen-3-yl)-1-(4-fluorophenyl)-3-phenyl-1H-indole-6-carboxamide (racemic)]	55
O=C(NC1CCS(=O)(=O)C1)c1ccc2c(-c3c(Cl)cccc3Cl)cn(-c3ccc(F)cc3)c2c1 (racemic) [Example 47, 3-(2,6-dichlorophenyl)-N-(1,1-dioxidotetrahydrothiophen-3-yl)-1-(4-fluorophenyl)-1H-indole-6-carboxamide (racemic)]	942
O=C(NC1CCS(=O)(=O)C1)c1ccc2c(-c3c(F)cccc3Cl)cn(-c3ccc(F)cc3)c2c1 (racemic) [Example 49, 3-(2-chloro-6-fluorophenyl)-N-(1,1-dioxidotetrahydrothiophen-3-yl)-1-(4-fluorophenyl)-1H-indole-6-carboxamide (racemic)]	155
O=C(NC1CCS(=O)(=O)C1)c1ccc2c(-c3cncnc3)cn(-c3ccc(F)cc3)c2c1 (racemic) [Example 50, N-(1,1-dioxidotetrahydrothiophen-3-yl)-1-(4-fluorophenyl)-3-pyrimidin-5-yl-1H-indole-6-carboxamide (racemic)]	321
Cn1ccc2cc(-c3cn(-c4ccc(F)cc4)c4cc(C(=O)NC5CCS(=O)(=O)C5)ccc34)ccc21 (racemic) [Example 51, N-(1,1-dioxidotetrahydrothiophen-3-yl)-1-(4-fluorophenyl)-1′-methyl-1H,1′H-3,5′-biindole-6-carboxamide (racemic)]	102
O=C(NC1CCS(=O)(=O)C1)c1ccc2c(-c3cccnc3)cn(-c3ccc(F)cc3)c2c1 (racemic) [Example 52, N-(1,1-dioxidotetrahydrothiophen-3-yl)-1-(4-fluorophenyl)-3-pyridin-3-yl-1H-indole-6-carboxamide (racemic)]	129
Cc1noc(C)c1-c1cn(-c2ccc(F)cc2)c2cc(C(=O)NC3CCS(=O)(=O)C3)ccc12 (racemic) [Example 53, 3-(3,5-dimethylisoxazol-4-yl)-N-(1,1-dioxidotetrahydrothiophen-3-yl)-1-(4-fluorophenyl)-1H-indole-6-carboxamide (racemic)]	502
Cn1cc(-c2cn(-c3ccc(F)cc3)c3cc(C(=O)NC4CCS(=O)(=O)C4)ccc23)cn1 (racemic) [Example 54, N-(1,1-dioxidotetrahydrothiophen-3-yl)-1-(4-fluorophenyl)-3-(1-methyl-1H-pyrazol-4-yl)-1H-indole-6-carboxamide (racemic)]	345
Cc1ccc(-c2cn(-c3ccc(F)cc3)c3cc(C(=O)NC4CCS(=O)(=O)C4)ccc23)cc1 (racemic) [Example 55, N-(1,1-dioxidotetrahydrothiophen-3-yl)-1-(4-fluorophenyl)-3-(4-methylphenyl)-1H-indole-6-carboxamide (racemic)]	696
O=C(NC1CCS(=O)(=O)C1)c1ccc2c(-c3ccc(-n4cccn4)cc3)cn(-c3ccc(F)cc3)c2c1 (racemic) [Example 56, N-(1,1-dioxidotetrahydrothiophen-3-yl)-1-(4-fluorophenyl)-3-[4-(1H-pyrazol-1-yl)phenyl]-1H-indole-6-carboxamide (racemic)]	117
O=C(NC1CCS(=O)(=O)C1)c1ccc2c(-c3ccc(OC(F)F)cc3)cn(-c3ccc(F)cc3)c2c1 (racemic) [Example 57, 3-[4-(difluoromethoxy)phenyl]-N-(1,1-dioxidotetrahydrothiophen-3-yl)-1-(4-fluorophenyl)-1H-indole-6-carboxamide (racemic)]	562
O=C(NC1CCS(=O)(=O)C1)c1ccc2c(-c3cccc(O)c3)cn(-c3ccc(F)cc3)c2c1 (racemic) [Example 59, N-(1,1-dioxidotetrahydrothiophen-3-yl)-1-(4-fluorophenyl)-3-(3-hydroxyphenyl)-1H-indole-6-carboxamide (racemic)]	492
COC(=O)c1cc(-c2cn(-c3ccc(F)cc3)c3cc(C(=O)NC4CCS(=O)(=O)C4)ccc23)cs1 (racemic) [Example 60, methyl 4-{6-[(1,1-dioxidotetrahydrothiophen-3-yl)carbamoyl]-1-(4-fluorophenyl)-1H-indol-3-yl}thiophene-2-carboxylate (racemic)]	175
Cc1cc(C)n(-c2cccc(-c3cn(-c4ccc(F)cc4)c4cc(C(=O)NC5CCS(=O)(=O)C5)ccc34)c2)n1 (racemic) [Example 61, 3-[3-(3,5-dimethyl-1H-pyrazol-1-yl)phenyl]-N-(1,1-dioxidotetrahydrothiophen-3-yl)-1-(4-fluorophenyl)-1H-indole-6-carboxamide (racemic)]	929
O=C(NC1CCS(=O)(=O)C1)c1ccc2c(-c3ccccc3Cl)cn(-c3ccc(F)cc3)c2c1 (single isomer, unassigned) [Example 2-A, 3-(2-chlorophenyl)-N-(1,1-dioxidotetrahydrothiophen-3-yl)-1-(4-fluorophenyl)-1H-indole-6-carboxamide]	171
Cc1c(-c2ccccc2Cl)c2ccc(C(=O)NC3(C)CCS(=O)(=O)C3)cc2n1-c1ccc(F)cc1 (single isomer, unassigned; enantiomer a) [Example 8-A, 3-(2-chlorophenyl)-1-(4-fluorophenyl)-2-methyl-N-(3-methyl-1,1-dioxidotetrahydrothiophen-3-yl)-1H-indole-6-carboxamide (Enantiomer A)]	934

Compounds with a lower IC50, results first:

IC50 [nM]	SMILES
19	O=C(NC1CCS(=O)(=O)C1)c1ccc2c(-c3cccc(Cl)c3Cl)cn(-c3ccc(F)cc3)c2c1 (racemic) [Example 44, 3-(2,3-dichlorophenyl)-N-(1,1-dioxidotetrahydrothiophen-3-yl)-1-(4-fluorophenyl)-1H-indole-6-carboxamide (racemic)]
13	N#Cc1cccc(-c2cn(-c3ccc(F)cc3)c3cc(C(=O)NC4CCS(=O)(=O)C4)ccc23)c1 (racemic) [Example 45, 3-(3-cyanophenyl)-N-(1,1-dioxidotetrahydrothiophen-3-yl)-1-(4-fluorophenyl)-1H-indole-6-carboxamide (racemic)]
2.1	O=C(NC1CCS(=O)(=O)C1)c1ccc2c(-c3cccc(C4CC4)c3)cn(-c3ccc(F)cc3)c2c1 (racemic) [Example 46, 3-(3-cyclopropylphenyl)-N-(1,1-dioxidotetrahydrothiophen-3-yl)-1-(4-fluorophenyl)-1H-indole-6-carboxamide (racemic)]
53	O=C(NC1CCS(=O)(=O)C1)c1ccc2c(-c3c(F)cccc3F)cn(-c3ccc(F)cc3)c2c1 (racemic) [Example 48, 3-(2,6-difluorophenyl)-N-(1,1-dioxidotetrahydrothiophen-3-yl)-1-(4-fluorophenyl)-1H-indole-6-carboxamide (racemic)]
14	O=C(NC1CCS(=O)(=O)C1)c1ccc2c(-c3cccc(OC(F)(F)F)c3)cn(-c3ccc(F)cc3)c2c1 (racemic) [Example 58, N-(1,1-dioxidotetrahydrothiophen-3-yl)-1-(4-fluorophenyl)-3-[3-(trifluoromethoxy)phenyl]-1H-indole-6-carboxamide (racemic)]
30	O=C(NC1CCS(=O)(=O)C1)c1ccc2c(-c3ccccc3Cl)cn(-c3ccc(F)cc3)c2c1 (single isomer, unassigned) [Example 2-B, 3-(2-chlorophenyl)-N-(1,1-dioxidotetrahydrothiophen-3-yl)-1-(4-fluorophenyl)-1H-indole-6-carboxamide]
5.6	CC1(NC(=O)c2ccc3c(-c4ccccc4Cl)cn(-c4ccc(F)cc4)c3c2)CCS(=O)(=O)C1 (single isomer, unassigned; enantiomer a) [Example 1-A, 3-(2-chlorophenyl)-1-(4-fluorophenyl)-N-(3-methyl-1,1-dioxidotetrahydrothiophen-3-yl)-1H-indole-6-carboxamide (Enantiomer A, fast)]
